# Assay results published in paper PMC7337048 (Journal of Structural Biology: X, 2019).
# Several values for one entry are separate records, joined by “and”; a condition that tells them apart may be missing. Equal entries are not always repeated. Where two headings read alike, the source gives them in different places.
# Legend:
# Human Arginase-2 = conditions: cited from earlier work; for IC50: Enzyme assay at pH 7.4
# human Arginase-1 [1] = target: T1, human Arginase-1 (Homo sapiens, UniProt P05089); assay: Apparent Michaelis-Menten parameters, colorimetric urea assay; type: biochemical; conditions: substrate; for Km: read-out: Michaelis constant (KM)
# T1 sequence (P05089 1-322): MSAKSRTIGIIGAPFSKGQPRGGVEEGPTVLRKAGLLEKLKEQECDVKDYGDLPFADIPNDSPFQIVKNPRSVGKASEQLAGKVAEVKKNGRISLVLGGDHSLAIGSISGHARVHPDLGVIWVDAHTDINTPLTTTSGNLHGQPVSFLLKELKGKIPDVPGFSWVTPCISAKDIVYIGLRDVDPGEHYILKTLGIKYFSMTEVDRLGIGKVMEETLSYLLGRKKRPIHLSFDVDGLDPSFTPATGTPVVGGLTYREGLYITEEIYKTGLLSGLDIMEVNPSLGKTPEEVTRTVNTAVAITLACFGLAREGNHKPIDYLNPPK
# Description: Arginase-1 activity was monitored by measurement of the rate of urea formation in a classic colorimetric assay ([Jung et al., 1975], [Zawada et al., 2009]). All components of the assay were diluted in Arginase reaction buffer 1 (8 mM Na2HPO4, 2 mM KH2PO4, pH 7.4, 137 mM NaCl, 2.7 mM KCl, and 0.05% Tween-20) or Arginase reaction buffer 2 (10 mM glycine, pH 9.5, 137 mM NaCl, 2.7 mM KCl, and 0.05% Tween-20). Compounds were either dissolved and diluted in DMSO, followed by further dilution in reaction buffer, or dissolved in MilliQ water (MQ) and diluted in reaction buffer to the desired concentrations. In a clear 384-well plate (cat. no. 781101; Greiner), 10 µL diluted compound and 10 µL of 3 nM (pH 9.5) or 15 nM (pH 7.4) Arginase-1 were combined and incubated for 90 min at room temperature. Then, 10 µL of 15 mM (pH 9.5) or 7.5 mM (pH 7.4) L-arginine (cat. no. 105000250; Acros Organics) was added to the plate, followed by incubation for 30 min. A 1:1 mixture of reagent A (10 mM o-phthaldialdehyde, 0.4% polyoxyethylene (23) lauryl ether (w/v) and 1.8 M sulfuric acid) and reagent B (1.3 mM primaquine diphosphate, 0.4% polyoxyethylene (23) lauryl ether (w/v), 130 mM boric acid and 3.6 M sulfuric acid) was prepared. The enzymatic reaction was stopped by addition of 30 μL of the reagent A + B mixture. After incubation with the reagent mixture for 60 min (pH 9.5) or 120 min (pH 7.4), the absorbance was measured at 450 nm using the EnVision 2104 Multilabel Plate Reader (PerkinElmer, Waltham, MA) (excitation filter P450). The final concentrations of Arginase-1 and L-arginine in the assay were respectively 1 nM and 5 mM at pH 9.5, and 5 nM and 2.5 mM at pH 7.4.
# Arginase-1 = system: Arginase-1; parameters: method as in Stone et al., 2010, Alarcón et al., 2006, Tsui et al., 2009; conditions: differences in pH and temperature; ref Stone et al., 2010, Alarcón et al., 2006, Tsui et al., 2009; cited from earlier work
# human Arginase-1 [2] = target: T1, human Arginase-1; assay: Arginase-1 colorimetric urea assay (inhibition); type: biochemical; conditions: for IC50: read-out: IC50 (nM) (95% CI); for Ki: Cheng-Prusoff equation, read-out: Ki (nM) (95% CI)
# Description: Arginase-1 activity was monitored by measurement of the rate of urea formation in a classic colorimetric assay ([Jung et al., 1975], [Zawada et al., 2009]). […] Compounds were either dissolved and diluted in DMSO, followed by further dilution in reaction buffer, or dissolved in MilliQ water (MQ) and diluted in reaction buffer to the desired concentrations. […] The enzymatic reaction was stopped by addition of 30 μL of the reagent A + B mixture. […] The reported values were measured in quadruplicate in four independent experiments. Dose-response curves were fitted with a four-parameter logistic regression using XLFit (IDBS, Guildford, UK) to determine IC50 values. Graphs for the manuscript were prepared using Prism (GraphPad Software, San Diego, CA).
# human Arginase-1 [3] = target: T1, human Arginase-1; assay: Thermal shift assay; type: binding; conditions: 50 μM inhibitor
# Description: In a 96-well PCR plate (cat no. 652260; Greiner), 10 μL of the enzyme solution was mixed with 5 μL of 200 μM compound dissolved in MQ. […] The plate was sealed with Microseal B Adhesive Sealer (cat. no. MSB1001; Bio-Rad, Hercules, CA) and placed in a CFX96 Real-Time Detection System (Bio-Rad). The temperature was increased from 20 to 95 °C in increments of 0.5 °C during which the SYPRO Orange fluorescence was measured. The resulting datasets were first truncated to contain only the data points that lie between the minimal and maximal fluorescence signals. The remaining data were then fitted to the sigmoidal five-parameter equation (Eq. (2)) ([Schulz et al., 2013]), in which Fmin and Fmax are respectively the minimum and maximum fluorescent signals of the melting transition, T is the temperature, a is the hill slope and c is the asymmetric factor. The melting temperature was then determined as the point of inflection of the melting curve (Eq. […] The reported values were measured in quadruplicate in four independent experiments.(2) […]
# human Arginase-1 [4] = target: T1, human Arginase-1; assay: Surface plasmon resonance binding kinetics; conditions: for τ (target residence time): τ = 1/kd
# Description: Binding kinetics of the inhibitors were determined by SPR using a Biacore T200 (GE Healthcare). […] The inhibitors were diluted in running buffer from a stock solution in MQ and were injected in an increasing concentration range of 0.1, 0.316, 1, 3.16 and 10 µM. […] The compound response was subtracted with both the reference channel response and the blank injection.
# human Arginase-1 [5] = target: T1, human Arginase-1; conditions: Enzyme assay at pH 7.4; racemic ABH assumed; ref Golebiowski et al., 2013, Van Zandt et al., 2013, Golebiowski et al., 2013, Van Zandt et al., 2019; cited from earlier work
# [6] = Enzyme assay at pH 7.5, ref Colleluori and Ash, 2001
structure (smiles),measurement,setting,value
"C[C@H](N)C(=O)N1C[C@H](CCCB(O)O)[C@](N)(C(=O)O)C1 [CB-1158, (3R,4S)-3-amino-1-[(2S)-2-aminopropanoyl]-4-(3-boronopropyl)pyrrolidine-3-carboxylic acid]",IC50,"Human Arginase-2; ref Oberlies et al., 2009",296 nM
N=C(N)NCCC[C@H](N)C(=O)O [L-arginine],catalytic rate constant (kcat),human Arginase-1 [1]; pH 7.4,57 s⁻¹
same,Km,human Arginase-1 [1]; pH 7.4,2300 µM
same,catalytic rate constant (kcat),human Arginase-1 [1]; pH 9.5,460 s⁻¹
same,Km,human Arginase-1 [1]; pH 9.5,4900 µM
same,Km,Arginase-1,1900 µM and 2300 µM and 1500 µM
same,kcat,Arginase-1,300 s⁻¹ and 190 s⁻¹
"N[C@@H](CCCCB(O)O)C(=O)O [ABH, (2S)-2-amino-6-boronohexanoic acid]",IC50,"human Arginase-1 [2]; pH 7.4, 5 nM Arginase-1, 2.5 mM L-arginine",184 nM
same,Ki,human Arginase-1 [2]; pH 7.4,88 nM
same,decrease in the Ki on increase of the pH from 7.4 to 9.5,human Arginase-1 [2]; pH 7.4 versus pH 9.5,8 fold
same,IC50,"human Arginase-1 [2]; pH 9.5, 1 nM Arginase-1, 5 mM L-arginine",22 nM
same,Ki,human Arginase-1 [2]; pH 9.5,11 nM
same,Tm,human Arginase-1 [3]; pH 7.4,77.4 °C
same,ΔTm at 50 µM,human Arginase-1 [3]; pH 7.4,4.5 °C
same,Tm,human Arginase-1 [3]; pH 9.5,80.9 °C
same,ΔTm at 50 µM,human Arginase-1 [3]; pH 9.5,3.5 °C
same,Kd,human Arginase-1 [4]; pH 7.4,797 nM
same,ka,human Arginase-1 [4]; pH 7.4,12000 M⁻¹ s⁻¹
same,kd,human Arginase-1 [4]; pH 7.4,0.0099 s⁻¹
same,log(ka),human Arginase-1 [4]; pH 7.4,4.09
same,log(kd),human Arginase-1 [4]; pH 7.4,−2.00
same,τ (target residence time),human Arginase-1 [4]; pH 7.4,100 s
same,Kd,human Arginase-1 [4]; pH 9.5,27 nM
same,ka,human Arginase-1 [4]; pH 9.5,5100 M⁻¹ s⁻¹
same,kd,human Arginase-1 [4]; pH 9.5,0.00014 s⁻¹
same,log(ka),human Arginase-1 [4]; pH 9.5,3.71
same,log(kd),human Arginase-1 [4]; pH 9.5,−3.86
same,τ (target residence time),human Arginase-1 [4]; pH 9.5,7200 s
same,IC50,human Arginase-1 [5],1450 to 1550 nM
same,IC50,"Human Arginase-2; racemic ABH assumed, ref Golebiowski et al., 2013, Van Zandt et al., 2013, Golebiowski et al., 2013, Van Zandt et al., 2019",1920 to 2550 nM
same,Ki,Human Arginase-2; [6],250 nM
same,Ki,"Human Arginase-2; Enzyme assay at pH 9.5, ref Colleluori and Ash, 2001",8.5 nM
same,potency lower at pH 7.5 compared to pH 9.5,"Human Arginase-2; pH 7.5 versus pH 9.5, ref Colleluori and Ash, 2001",~30 times
"N=C(NO)NCC[C@H](N)C(=O)O [nor-NOHA, N^ω-hydroxy-nor-L-arginine]",ΔTm at 50 µM,human Arginase-1 [3]; pH 7.4,4.8 °C
same,ΔTm at 50 µM,human Arginase-1 [3]; pH 9.5,4.7 °C
same,IC50,"Human Arginase-2; ref Van Zandt et al., 2019",1260 nM
same,Ki,Human Arginase-2; [6],51 nM
